Assay results: publication PMC9948168, “Vanillin-Based Indolin-2-one Derivative Bearing a Pyridyl Moiety as a Promising Anti-Breast Cancer Agent via Anti-Estrogenic Activity” (ACS Omega, 2023)
Where “and” joins values, the source holds several entries; their conditions need not be identical. Equal entries are not always repeated.

Tests used:
[1] = test system: ER-α; experiment: In vitro ER-α inhibitory ELISA assay in MCF-7 cells; assay type: cell-based, human; settings: 1 μg/mL, 24 h
Description: An in vitro ER-α inhibitory ELISA assay was performed using a Human ER-α/Estrogen Receptor ELISA Kit (Sandwich ELISA) (Lifespan Biosciences, Seattle, Washington, USA) as previously described.[64] The cells were plated at a density of 2000 cells/well in a 96-well plate. […] After 24 h, the pellets of the cells were collected by centrifugation. The cells were washed three times with PBS and then lysed by ultrasonication, and the supernatant was collected for testing. The wells were loaded with 100 μL of either standards or samples and incubated for 90 min at 37 °C. The wells were washed with 1× wash buffer for removing any unbound sample and 100 μL 1× biotinylated detection antibody was next put in and incubated for 1 h at 37 °C. The wells were rewashed with 1× wash buffer, and 100 μL 1× HRP conjugate was then added and incubated for 30 min at 37 °C. A third wash with 1× wash buffer was done and 90 μL of the TMB substrate was added. The TMB substrate reacted with the HRP enzyme, ensuring a color development, and the reaction was terminated using 50 μL of a stop solution. Finally, the optical density (OD) of the well was measured at a wavelength of 450 nm ± 2 nm. The OD of an unknown sample was calculated by correlation with a standard curve generated by standards with known concentrations.

[2] = Solubility test by HPLC; assay type: physicochemical
Excerpt: Studying drug solubility is a crucial part of the pre-formulation study. It is an integral phase that every drug has been through in any development process to determine its bioavailability and the best excipients used during formulation. The solubility of compound 6j was detected using HPLC in methanol, ethanol, and acetonitrile. […] With such results, compound 6j requires the addition of a surfactant to increase its solubility, especially in water. Different types of surfactants could be used to study their effect on increasing solubility in future plans. We see that this compound has the potential to go through the formulation study. […] Accordingly, the active compound 6j was analyzed with SwissADME. The physicochemical properties of compound 6j, molecular weight (392.83 g/mol), fraction Csp3 (0.09), rotatable bonds (5), H-bond acceptors (4), H-bond donors (1), molar refractivity (112.41), and topological polar surface area (TPSA) (60.45 Å^2) were measured. For lipophilicity, log Po/w (XLOGP3) (3.93), log Po/w (WLOGP) (3.98), log Po/w (MLOGP) (2.66), log Po/w (SILICOS-IT) (5.03) and consensus It was measured as log Po/w (3.75). […] The drug-likeness status of 6j was detected as suitable according to Lipinski, Ghose, Veber, Egan, and Muegge’s limited rules.[44] […]

What does the source list for `COc1cc(C=C2C(=O)Nc3ccc(Cl)cc32)ccc1OCc1ccccn1` (mixture of isomers) [6j]?
ER-α pg/mL (mean ± SEM) [1]: 424.9 ± 17.2 pg/mL; inhibition (%) of ER-α ([1]; compared to control): 62% and 62.4%; water solubility [2]: did not detect any water solubility
